Test results: patent publication US7923563B2, “Amorphous object of cinnamide compound” (Eisai R&D Management Co., Ltd., priority 2004, dated 2011)

Tests used:
[1] = Solubility test of the crystalline compound (1) and the amorphous compound (1) (apparent solubility in buffer, HPLC); format: physicochemical; settings: room temperature, 30 minutes standing after ultrasonication
Description: An excess amount of each sample was added to 0.5 mL of the following each test solution, which was then dispersed and dissolved by a ultrasonication operation for several minutes (about 3 minutes). After allowing to stand at room temperature for 30 minutes, the supernatant was separated by a centrifugation operation; the sample concentration in the supernatant as determined by an HPLC method was defined as an apparent solubility in each test solution.
pH 5: Diluted Mcllvaine buffer solution (Kanto Chemical Co. Inc.)
pH 7: GIBCO™ (Dulbecco's phosphate-buffered saline, Invitrogen Corporation)

[2] = Hygroscopicity test of the amorphous compound (1) (microbalance, weight change vs relative humidity); format: physicochemical; settings: 25° C., relative humidities of 5% to 90%; FIG. 3
Description: The hygroscopicity of the amorphous substance was evaluated using a microbalance (MB300W, VTI Corporation, USA). A sample placed in a glass holder was suspended in a device adjusted at 25° C., and a change in the weight thereof was followed over relative humidities of 5% to 90%. The sample weight was measured at measuring points (of the relative humidities) with an interval of 2 minutes; the weight at the time point of the amount of change reaching within 0.2% was defined as the final value.

[3] = pH 5 buffer (diluted McIlvaine buffer solution)
[4] = pH 7 buffer (Dulbecco's phosphate-buffered saline)

| Structure (SMILES) | Apparent solubilites [1, 3] [mg/mL] | Apparent solubilites [1, 4] [mg/mL] | Hygroscopicity (weight change over relative humidity) [2] |
| --- | --- | --- | --- |
| COc1cc(/C=C2\CCCN([C@@H](C)c3ccc(F)cc3)C2=O)ccc1-n1cnc(C)c1 [Crystalline compound (1), (3E)-1-[(1S)-1-(4-fluorophenyl)ethyl]-3-[3-methoxy-4-(4-methyl-1H-imidazol-1-yl)benzylidene]piperidin-2-one] | 0.077 | 0.003 | – |
| COc1cc(/C=C2\CCCN([C@@H](C)c3ccc(F)cc3)C2=O)ccc1-n1cnc(C)c1 [Amorphous compound (1), (3E)-1-[(1S)-1-(4-fluorophenyl)ethyl]-3-[3-methoxy-4-(4-methyl-1H-imidazol-1-yl)benzylidene]piperidin-2-one] | 0.225 | 0.011 | low hygroscopicity |
